From patent US20040259135A1, “Biosynthetic labeling and separation of RNA” (priority 2003, published 2004)

Key:
[1] = system: human foreskin fibroblast cells; test: Growth of human foreskin fibroblast host cells in media containing 2,4-dithiouracil; type: cell-based; conditions: 5 μM to 2 mM 2,4-dithiouracil, even at highest concentration (2 mM)
Protocol: (§1) Methods and Results: Initial experiments assayed the growth of T gondii within human foreskin fibroblast cells in media containing a range of concentrations of 2,4-dithiouracil (5 μM to 2 mM). Equivalent numbers of parasites were used to infect host cells and the replication of the parasites in the different concentrations of 2,4-dithiouracil was monitored over time.

Toxoplasma RNA = test: Incorporation of thiouracil into Toxoplasma RNA (HPDP-biotin labeling, northern blot probed with streptavidin-HRP); type: cell-based, Toxoplasma gondii; conditions: 6 hours
Protocol: (§2) To test for the incorporation of thiouracil into RNA, wild type (WT) parasites and mutants that lack the UPRT enzyme (UPRT(−)) were used to infect human foreskin fibroblasts in culture after which, the normal medium was replaced with medium containing 2 mM 2,4-dithiouracil. Following growth in this medium for 6 hours, the infected cells were harvested and RNA prepared by standard methods using Trizol reagent from Gibco-BRL.
(§3) The resulting RNA was incubated with HPDP-biotin (EZ-Link Biotin-HPDP (N-(6-(Biotinamido)hexyl)-3′-(2′-pyridyidithio)-propionamide) from Pierce Biotechnology) which specifically reacts with free thiols which are normally not present in RNA. For both RNA samples (WT and UPRT(−)) 25 μg of RNA was incubated with 50 μl of a 1 mg/ml Biotin-HPDP solution and Tris HCl/EDTA buffer (pH 7.4) for 1.5 hours. Biotinylated RNA was precipitated from any excess biotin by isopropanol precipitation and centrifugation. Approximately 2.5 μg of this material was resolved by agarose gel electrophoresis and transferred to a nitrocellulose filter, all by standard procedures. The resulting filter was then probed with streptavidin conjugated to horseradish peroxidase (Streptavidin-HRP) and the bound material detected with chemiluminescence (using the ECL kit from Amersham). […] The upper-most major band is from the large subunit of the human ribosome.

HeLa cells = test: Incorporation of thiouracil into RNA of HeLa cells with or without the Toxoplasma UPRT gene (northern blot); type: cell-based, human; conditions: 6 hours
Text: Methods and Results: The coding region of the Toxoplasma UPRT gene was incorporated into the retroviral vector known as LNCX (Miller & Rosman (1989) BioTechniques 7:980-990), placing the UPRT gene under control of the cytomegalovirus immediate-early promoter. This construct was introduced into HeLa cells and cell lines that had stably incorporated the vector were selected using neomycin. Cells that survived this selection and non-transfected HeLa cells were both grown in the presence of 2,4-dithiouracil for 6 hours. RNA was isolated from these cells and labeled with HPDP-biotin as described above. Incorporation of thiouracil was detected by northern blot as described above.

T gondii = test: Growth of T gondii within human foreskin fibroblast cells in media containing 2,4-dithiouracil; type: cell-based, Toxoplasma gondii; conditions: 5 μM to 2 mM 2,4-dithiouracil, even at highest concentration (2 mM); replication monitored over time
Protocol: as §1

[2] = biological target: UPRT of the protozoan Toxoplasma gondii (Toxoplasma gondii, UniProt Q26998); conditions: purified enzyme; 100 different compounds tested in previous studies; cited from earlier work
Chain of UPRT of the protozoan Toxoplasma gondii (Q26998 whole entry): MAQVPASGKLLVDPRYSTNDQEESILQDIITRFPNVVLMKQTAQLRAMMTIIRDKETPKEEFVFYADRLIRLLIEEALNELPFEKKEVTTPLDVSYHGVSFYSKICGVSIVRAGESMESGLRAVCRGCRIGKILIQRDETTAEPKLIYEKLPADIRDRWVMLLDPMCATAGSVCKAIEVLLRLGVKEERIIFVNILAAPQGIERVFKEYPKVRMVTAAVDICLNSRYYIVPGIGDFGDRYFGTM

human RNA = test: Incorporation of thiouracil into RNA of human foreskin fibroblast host cells (HPDP-biotin, streptavidin-HRP northern blot); type: cell-based; conditions: Toxoplasma-infected human foreskin fibroblasts, 2 mM, 6 hours
Protocol: as §2, §3

SMILES | growth defects of the human cells [1] | incorporation of thiouracil into Toxoplasma RNA, UPRT dependence (Toxoplasma RNA; WT versus mutants that lack the UPRT enzyme (UPRT(−)), 2 mM) | incorporation of thiouracil into Toxoplasma ribosomal RNA (Toxoplasma RNA; wild type parasites in human foreskin fibroblasts, 2 mM 2,4-dithiouracil) | incorporation of thiouracil into RNA (HeLa cells; HeLa cells that had received the Toxoplasma UPRT gene) | incorporation of thiouracil into RNA (HeLa cells; normal (non-transfected) HeLa cells) | growth defects of the parasites (T gondii) | substrate of purified UPRT (conversion into nucleoside monophosphate) [2] | incorporation into human RNA (human RNA)
Sc1ccnc(S)n1 [2,4-dithiouracil] | No growth defects | only in parasites with the UPRT enzyme | two of the three major bands detectable by ethidium staining of the RNA have thiouracil incorporated into them | good incorporation at a level similar to that seen with the parasites | lack the ability to incorporate the thiouracil | No growth defects | converted into UMP | not incorporated
O=c1[nH]cc(F)c(=O)[nH]1 [5-fluorouracil] |  |  |  |  |  |  | known toxic substrates | 
O=c1c[n+]([O-])cc[nH]1 [emimycin] |  |  |  |  |  |  | known toxic substrates | 
